# “And” between values parts separate entries of the source, which are not always exact repeats. Equal values may be shown once.
# Tests used:
# Type in all cases: physicochemical
# [1] = Control experiments: availability of the species in alkaline aqueous medium without using the reactor; details: acid solubilized directly in aqueous phase, no reactor
# Method: Previously, the back titration procedure was internalized and optimized (Example 1), ensuring that the reproducibility of the measurements was adequate (standard deviation values below 10%, for example) and that the recoveries were close to what was expected based on the purity of the reagents (i.e., close to or above 90%). […] Control experiments were performed (measuring the availability of the species in an aqueous medium, without using the reactor) by solubilizing the organic acid directly in the aqueous phase and titrating a 10.0 mL aliquot; the same way, experiments were performed in the reactor based on the standardization of heptol and salinity already discussed (3.5%).
# [2] = Partition equilibrium (migration to aqueous phase) heptol/water under pressure and temperature, central composite design, potentiometric titration; details: for Migration, Predicted: model value
# Method: Three multivariate experimental designs (central composite designs) were performed in which the variables pressure (up to 1 MPa) and temperature (between 25° C. and 80° C.) were considered independent variables, with the migration of three acidic species as the response factor: benzoic, pentanoic and cyclohexanepentanoic acid. For this purpose, 5 levels were defined and gave rise to 10 experiments for each acidic species (Table 4), added to two control experiments (with higher pressure and temperature, as well as in the absence of pressure and at room temperature).
# The experiments were performed with constant salinity of 3.5% (m·v^−1), constant heptol fraction (70:30, for heptane and toluene), and acidic species concentration of 0.03 M for benzoic and pentanoic acid, and 0.01 M for cyclohexanepentanoic acid. The results were evaluated with 95% confidence, using a response surface to estimate the maximum observable effect in each case, provided that the mathematical correlation was equal to or greater than R^2: 0.75.
# [3] = Partition equilibrium in the presence of surfactants (TBA, CTA, TMA)
# Description: The presence of chemical compounds usually added in the chain of unit operations of oil extraction and production, such as demulsifiers and surfactants, can affect the partition equilibrium of species in this water/oil system. In order to understand the extent of this effect, as well as discern the relevance of the chemical structure on this effect, the following items were chosen: • Dissolvan 961 (Clariant), composed of oil hydrocarbons (CAS 918-811-1) and ethanol (CAS 64-17-5); • Dissolvan 974 (Clariant), composed of EO-PO block polymer poly adducts and Bisphenol-A-diglycidyl ether (CAS 68123-18-2) and ethanol (CAS 64-17-5); • Tetrabutylammonium chloride (CAS 1112-67-0), 97% purity; • Cetyltrimethylammonium chloride (CAS 112-02-7), 25% in water; and • Trimethylammonium chloride (CAS 593-81-7), 98% purity.
# For this study, the experiments (in triplicate) used between 100.0 and 1000.0 mg·L^−1 of each compound, comparing the results with control tests (absence of the component), all with constant salinity at 3.5% (m·v^−1). Finally, neutralization titration with a standardized NaOH titrant solution was used to determine the effect on the partition equilibrium for four acidic species (the same as in the other examples, except for dicyclohexylacetic acid).
# Considering the study with surfactants, the (individual) addition of three species to the control system was evaluated (tetrabutylammonium chloride (TBA), tetramethylammonium chloride (TMA) and cetyltrimethylammonium chloride (CTA)). For this purpose, the surfactants have distinct chemical structures, namely the size of the side chain, and their eventual effect on the partition equilibrium of the acidic species was evaluated.
# [4] = Partition equilibrium with addition of calcium and strontium salts to the aqueous phase
# Method: The addition of salts to the reaction system is of fundamental importance when one intends to mimic field conditions. In this sense, in addition to continuing the study of the salinity effect (Example 4), the insertion of salts containing Ca^2+ and Sr^2+ ions, known to be present in seawater, was tested. To this end, the projects were based on the literature (Zheng, J. et al. Offshore produced water management: A review of current practice and challenges in harsh/Arctic environments. Mar. Pol. Bul. 2016, 104, 7-19) and four concentrations of each of the two ions were evaluated (400.0, 1200.0, 2600.0 and 9000.0 mg·L^−1), maintaining salinity at 3.5% (m·v^−1).
# In short, the experimental results were generated in triplicate, using 99% NaCl to add salinity to the aqueous fraction and PA calcium chloride and PA strontium chloride to add calcium and strontium, respectively.
# The addition of calcium and strontium to the reaction system, in the form of salts, aims at mimicking the real scenario in which both species are present (regardless of the salinity of the medium), especially in the well condition. This study aimed at understanding the effect (on the migration of acids to the organic phase) of this ion in the system also at concentrations higher than 10 mM. Finally, the experiments (in triplicate) with divalent strontium ions followed the same rationale.
# [5] = 52 °C, 0.5 MPa (experiments 9 and 10)
compound,measurement,setting,value
"O=C(O)c1ccccc1 [Benzoic Acid, benzoic acid]",Availability (reference value),[1]; Na2CO3 + NaHCO3 (3.48×10^−5 mol),72.2 % mol
same,Availability (reference value),[1]; NaHCO3 (3.45×10^−5 mol),83.1 % mol
same,"Migration, Measured","[2]; 20 °C, 0.1 MPa (experiment 12, control)","57.0 %, mol"
same,"Migration, Increment (related to control)","[2]; 25 °C, 0.5 MPa (experiment 5)","2.7 %, mol"
same,"Migration, Measured","[2]; 25 °C, 0.5 MPa (experiment 5)","58.6 %, mol"
same,"Migration, Increment (related to control)","[2]; 38 °C, 0.25 MPa (experiment 1)","6.9 %, mol"
same,"Migration, Measured","[2]; 38 °C, 0.25 MPa (experiment 1), heptol 70:30, 3.5% salinity","61.0 %, mol"
same,"Migration, Increment (related to control)","[2]; 38 °C, 0.75 MPa (experiment 3)","4.6 %, mol"
same,"Migration, Measured","[2]; 38 °C, 0.75 MPa (experiment 3)","59.7 %, mol"
same,"Migration, Increment (related to control)","[2]; 52 °C, 0.1 MPa (experiment 7)","16.4 %, mol"
same,"Migration, Measured","[2]; 52 °C, 0.1 MPa (experiment 7)","66.4 %, mol"
same,"Migration, Increment (related to control)",[2]; [5],"14.5 %, mol and 14.3 %, mol"
same,"Migration, Measured","[2]; 52 °C, 0.5 MPa (experiments 9 and 10, centre point)","65.3 %, mol and 65.2 %, mol"
same,"Migration, Increment (related to control)","[2]; 52 °C, 1 MPa (experiment 8)","16.8 %, mol"
same,"Migration, Measured","[2]; 52 °C, 1 MPa (experiment 8)","66.7 %, mol"
same,"Migration, Increment (related to control)","[2]; 66 °C, 0.25 MPa (experiment 2)","21.2 %, mol"
same,"Migration, Measured","[2]; 66 °C, 0.25 MPa (experiment 2)","69.2 %, mol"
same,"Migration, Increment (related to control)","[2]; 66 °C, 0.75 MPa (experiment 4)","19.8 %, mol"
same,"Migration, Measured","[2]; 66 °C, 0.75 MPa (experiment 4)","68.4 %, mol"
same,"Migration, Increment (related to control)","[2]; 80 °C, 0.5 MPa (experiment 6)","27.9 %, mol"
same,"Migration, Measured","[2]; 80 °C, 0.5 MPa (experiment 6)","73.0 %, mol"
same,"Migration, Increment (related to control)","[2]; 80 °C, 1 MPa (experiment 11)","26.3 %, mol"
same,"Migration, Measured","[2]; 80 °C, 1 MPa (experiment 11, control)","72.1 %, mol"
same,"Migration, Predicted","[2]; 25 °C, 0.5 MPa (experiment 5)","57.5 %, mol"
same,"Migration, Predicted","[2]; 38 °C, 0.25 MPa (experiment 1)","62.5 %, mol"
same,"Migration, Predicted","[2]; 38 °C, 0.75 MPa (experiment 3)","62 %, mol"
same,"Migration, Predicted","[2]; 52 °C, 0.1 MPa (experiment 7)","66.1 %, mol"
same,"Migration, Predicted",[2]; [5],"66.6 %, mol"
same,"Migration, Predicted","[2]; 52 °C, 1 MPa (experiment 8)","65.5 %, mol"
same,"Migration, Predicted","[2]; 66 °C, 0.25 MPa (experiment 2)","69.8 %, mol"
same,"Migration, Predicted","[2]; 66 °C, 0.75 MPa (experiment 4)","69.8 %, mol"
same,"Migration, Predicted","[2]; 80 °C, 0.5 MPa (experiment 6)","72.7 %, mol"
same,"Migration, Predicted","[2]; 80 °C, 1 MPa (experiment 11)","66.6 %, mol"
same,Migration,"[3]; Absence of surfactant, salinity 3.5%","82.0 %, mol"
same,Migration,[3]; CTA100 (cetyltrimethylammonium chloride 100 mg · L^−1),"57.1 %, mol"
same,Migration,[3]; CTA1000 (1000 mg · L^−1),"66.3 %, mol"
same,Migration,[3]; TBA100 (tetrabutylammonium chloride 100 mg · L^−1),"55.5 %, mol"
same,Migration,[3]; TBA1000 (1000 mg · L^−1),"54.8 %, mol"
same,Migration,[3]; TMA100 (trimethylammonium chloride 100 mg · L^−1),"63.4 %, mol"
same,Migration,[3]; TMA1000 (1000 mg · L^−1),"63.7 %, mol"
same,Increase in migration to the aqueous phase with CTA,"[3]; surfactant CTA, 1000 mg·L^−1",~10%
same,Effect of TBA on migration to the aqueous phase,"[3]; surfactant TBA, different concentrations",no significant effect
same,Increase in affinity for the hydrophilic phase with TMA,"[3]; surfactant TMA, from 100 mg·L^−1",approximately 10%
same,Migration,"[4]; Absence of ions, salinity 3.5%","82.0 %, mol"
same,Migration,"[4]; Calcium 400 mg · L^−1, salinity 3.5%","80.0 %, mol"
same,Migration,"[4]; Calcium 1200 mg · L^−1, salinity 3.5%","56.7 %, mol"
same,Migration,"[4]; Calcium 2600 mg · L^−1, salinity 3.5%","56.7 %, mol"
same,Migration,"[4]; Strontium 400 mg · L^−1, salinity 3.5%","83.0 %, mol"
same,Migration,"[4]; Strontium 1200 mg · L^−1, salinity 3.5%","83.0 %, mol"
same,Migration,"[4]; Strontium 2600 mg · L^−1, salinity 3.5%","83.0 %, mol"
same,Extent of salting out effect in the presence of calcium,"[4]; calcium ions, salinity 3.5%",greater than 30%
same,Migration to the aqueous phase in the presence of strontium,[4]; strontium ions,above 80 % (m·v^−1)
